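Each compound was tested at five concentrations against cells in 96-well plates for 48 hours. TGI denotes the concentration required for complete inhibition of growth.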
Legend:
Experiment in all cases: inhibition of tumour cell growth, NCI panel, 48 h
HOP-62 NSCLC = tested on: HOP-62 NSCLC
M14 melanoma = tested on: M14 melanoma
A498 renal = tested on: A498 renal
SW-620 colon = tested on: SW-620 colon
RXF 393 renal = tested on: RXF 393 renal
MDA-MB-231 breast = tested on: MDA-MB-231 breast
SK-MEL-28 melanoma = tested on: SK-MEL-28 melanoma
DU-145 prostate = tested on: DU-145 prostate
TK-10 renal = tested on: TK-10 renal
NCI-H23 lung = tested on: NCI-H23 lung
SNB-75 CNS = tested on: SNB-75 CNS
SK-MEL-5 melanoma = tested on: SK-MEL-5 melanoma
IGROV1 ovarian = tested on: IGROV1 ovarian
PC-3 prostate = tested on: PC-3 prostate
SR leukemia = tested on: SR leukemia
RPMI-8226 leukemia = tested on: RPMI-8226 leukemia
ACHN renal = tested on: ACHN renal
NCI-H522 lung = tested on: NCI-H522 lung
K-562 leukemia = tested on: K-562 leukemia
SN12C renal = tested on: SN12C renal
786-0 renal = tested on: 786-0 renal
OVCAR-8 ovarian = tested on: OVCAR-8 ovarian
HCC-2998 colon = tested on: HCC-2998 colon
KM12 colon = tested on: KM12 colon
MALME-3M melanoma = tested on: MALME-3M melanoma
HT29 colon = tested on: HT29 colon
SF-539 CNS = tested on: SF-539 CNS
COLO 205 colon = tested on: COLO 205 colon
UO-31 renal = tested on: UO-31 renal
A549 NSCLC = tested on: A549 NSCLC
EKVX NSCLC = tested on: EKVX NSCLC
SK-OV-3 ovarian = tested on: SK-OV-3 ovarian
HS 578T breast = tested on: HS 578T breast
SF-295 CNS = tested on: SF-295 CNS
SNB-19 CNS = tested on: SNB-19 CNS
T-47D breast = tested on: T-47D breast
CAKI-1 renal = tested on: CAKI-1 renal
CCRF-CEM leukemia = tested on: CCRF-CEM leukemia
SF-268 CNS = tested on: SF-268 CNS
NCI/ADR-RES ovarian = tested on: NCI/ADR-RES ovarian
NCI-H460 lung = tested on: NCI-H460 lung
NCI-H226 lung = tested on: NCI-H226 lung
HCT-116 colon = tested on: HCT-116 colon
LOX IMVI melanoma = tested on: LOX IMVI melanoma
SK-MEL-2 melanoma = tested on: SK-MEL-2 melanoma
HOP-92 NSCLC = tested on: HOP-92 NSCLC
HCT-15 colon = tested on: HCT-15 colon
BT-549 breast = tested on: BT-549 breast
OVCAR-4 ovarian = tested on: OVCAR-4 ovarian
OVCAR-5 ovarian = tested on: OVCAR-5 ovarian
UACC-257 melanoma = tested on: UACC-257 melanoma
OVCAR-3 ovarian = tested on: OVCAR-3 ovarian
MDA-MB-435 = tested on: MDA-MB-435
UACC-62 melanoma = tested on: UACC-62 melanoma
MCF7 breast = tested on: MCF7 breast
U251 CNS = tested on: U251 CNS

COc1ccc2sc(-n3nc4ccccc4c3Nc3nc4ccc(OC)cc4s3)nc2c1
TGI (HOP-62 NSCLC): 4.43 µM
TGI (M14 melanoma): 35.8 µM
TGI (A498 renal): 5.63 µM
TGI (SW-620 colon): 36.4 µM
TGI (RXF 393 renal): 43.3 µM
TGI (MDA-MB-231 breast): 10.9 µM
TGI (SK-MEL-28 melanoma): 26.5 µM
TGI (DU-145 prostate): 17.9 µM
TGI (TK-10 renal): 11.8 µM
TGI (NCI-H23 lung): 5.25 µM
TGI (SNB-75 CNS): 9.92 µM
TGI (SK-MEL-5 melanoma): 9.97 µM
TGI (IGROV1 ovarian): 8.47 µM
TGI (PC-3 prostate): 17.4 µM
TGI (SR leukemia): > 100 µM
TGI (RPMI-8226 leukemia): 7.12 µM
TGI (ACHN renal): 11.2 µM
TGI (NCI-H522 lung): 17.2 µM
TGI (K-562 leukemia): > 38.9 µM
TGI (SN12C renal): 18.5 µM
TGI (786-0 renal): 3.87 µM
TGI (OVCAR-8 ovarian): 6.17 µM
TGI (HCC-2998 colon): 5.47 µM
TGI (KM12 colon): 25.5 µM
TGI (MALME-3M melanoma): 14.8 µM
TGI (HT29 colon): 14.7 µM
TGI (SF-539 CNS): 4.5 µM
TGI (COLO 205 colon): > 63.9 µM
TGI (UO-31 renal): 34 µM
TGI (A549 NSCLC): 18.5 µM
TGI (EKVX NSCLC): 19.3 µM
TGI (SK-OV-3 ovarian): 7.47 µM
TGI (HS 578T breast): 5.61 µM
TGI (SF-295 CNS): 12.8 µM
TGI (SNB-19 CNS): 9.26 µM
TGI (T-47D breast): 5.64 µM
TGI (CAKI-1 renal): 6.89 µM
TGI (CCRF-CEM leukemia): > 100 µM
TGI (SF-268 CNS): 32.5 µM
TGI (NCI/ADR-RES ovarian): 10.4 µM
TGI (NCI-H460 lung): > 38.9 µM
TGI (NCI-H226 lung): 13.9 µM
TGI (HCT-116 colon): 5.95 µM
TGI (LOX IMVI melanoma): 24.3 µM
TGI (SK-MEL-2 melanoma): > 52.4 µM
TGI (HOP-92 NSCLC): 15.5 µM
TGI (HCT-15 colon): > 72.1 µM
TGI (BT-549 breast): 14 µM
TGI (OVCAR-4 ovarian): 6.82 µM
TGI (OVCAR-5 ovarian): 13.8 µM
TGI (UACC-257 melanoma): 19.5 µM
TGI (OVCAR-3 ovarian): 7.45 µM
TGI (MDA-MB-435): 12 µM
TGI (UACC-62 melanoma): 10.8 µM
TGI (MCF7 breast): 42 µM
TGI (U251 CNS): 11 µM
